Like-named read-outs stand apart in the source and are kept apart here.
Experiments:
[1] = system: human pulmonary microvascular endothelial cells (HPMEC); assay: DMOG-induced apoptosis in HPMEC; type: cell-based
From the text: The effects of various TSPO ligands on HPMEC under DMOG (a permeable prolyl-4-hydroxylase inhibitor which upregulates hypoxia-inducible factor and causes apoptosis) stimulation were investigated.

[2] = system: MCT rat; assay: MCT rat PH model: RV immunofluorescence (WGA cardiomyocyte size, CD31 micro-vessels); type: in vivo
From the text: Bar charts illustrating the quantitative data from immunofluorescence staining. ***p<0.001.
Immunofluorescence staining was used to examine the RV structural changes. The cardiomyocyte size was quantified by wheat germ agglutinin (WGA) and the number of micro-vessels by CD31 at RV insertion point.

[3] = system: MCT rat; assay: MCT rat PH model: MRI of RV structure and function; type: in vivo
[4] = system: MCT rat; assay: MCT rat PH model: pulmonary vascular remodelling and CD68+ macrophage infiltration (histology); type: in vivo
Experimental: Modulation of TSPO by XBD-173 was assessed in MCT rats. […] Heart and lung glucose metabolism were also assessed by FDG-PET imaging.

[5] = system: MCT rat; assay: MCT rat PH model: pulmonary arterial pressure, RVSP, RV hypertrophy, systemic blood pressure; type: in vivo
Experimental: Modulation of TSPO by XBD-173 was assessed in MCT rats. […] Heart and lung glucose metabolism were also assessed by FDG-PET imaging. […] This attenuation was dose-dependent manner. […] (data not shown).

[6] = system: HPAEC; assay: ROS production in TNF-α stimulated HPAEC (CellROX Green); type: cell-based, human; details: 10 nM and 50 nM; P<0.001; levels similar to TNF-α untreated control
Experimental: (§1) Mitochondrial membrane potential was determined using 20 nM Tetramethylrhodamine, Ethyl Ester, Perchlorate (TMRE; Life technologies, T669). ROS production was detected using 5 uM CellROX Green (Life technologies, C10444). 1 ug/mL Hoechst 33342 (Life technologies, H1399) was added for nucleus staining. Images were obtained with a Zeiss Axio Observer inverted widefield microscope. […] In addition, XBD173 signifantly (P<0.001) increased the mitochondrial membrane potentials following TNF-α stimulation, with the mitochondrial membrane potentials with XBD173 treatment recovering to similar levels to those seen for the TNF-α untreated control.

[7] = system: SuHx rat; assay: SuHx rat model: PAP, RV hypertrophy, systolic blood pressure; type: in vivo; details: SuHx rats, 2 mg/kg twice a day for two weeks
[8] = system: Human pulmonary artery smooth muscle cells (PASMCs); assay: PDGF- and hypoxia-stimulated proliferation of PASMCs; type: cell-based
[9] = biological target: T1, TSPO (Rattus norvegicus, UniProt P16257); assay: 11C-PBR28 PET imaging, ligand specificity tested by XBD-173 pre-treatment; type: in vivo; details: rats treated with XBD-173 prior to PET imaging
T1 construct: from tissue; host or cells: lungs and right ventricle of living control and monocrotaline-treated rats (in vivo PET)
Experimental: PET imaging was performed in healthy control and MCT 4 weeks rats (60 mg/kg subcutaneous injection). The uptake of TSPO PET tracer, ^11C-PBR28, was measured in the lungs and RV.

[10] = biological target: human TSPO (Homo sapiens, UniProt P30536, T147A); details: human subjects with high-affinity binding of their TSPO; read-out: mean Kd, high affinity binders; cited from earlier work
Chain of human TSPO (Homo sapiens, UniProt P30536, T147A) (P30536 2-169 T147A): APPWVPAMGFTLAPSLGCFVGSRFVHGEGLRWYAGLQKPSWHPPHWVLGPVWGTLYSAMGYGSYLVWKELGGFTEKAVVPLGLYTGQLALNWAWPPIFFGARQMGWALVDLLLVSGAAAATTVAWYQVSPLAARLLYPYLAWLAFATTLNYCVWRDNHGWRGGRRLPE

[11] = biological target: human TSPO (Homo sapiens, UniProt P30536); details: cited from earlier work
[12] = system: HPAECs; assay: TNF-α stimulated HPAEC activation: E-selectin ELISA and cytokine array; type: cell-based, human; details: 10 nM and 50 nM
Experimental: HPAECs were pre-treated with XBD173 (10 nM and 50 nM) for 24 hours before TNF-α (10 ng/ml) stimulation for 8 hours. At the end of the experiment, cell numbers were counted and cell culture supernatants collected (n=4 per group, control, TNF-α, TNF-α with XBD 10 nM and 50 nM treatments) for cytokine assay using the proteome profiler human cytokine array kit (R&D systems, ARY005B) and E-selectin ELISA assay. […] Further, XBD173 observably attenuated release of multiple cytokines and chemokines (CXCL-10, RANTES, IL-6, IL-21, IL-18, CXCL11, G-CSF and CXCL12) from HPAEC in response to TNF-α stimulation.

[13] = system: HPAEC; assay: Mitochondrial membrane potential in TNF-α stimulated HPAEC (TMRE); type: cell-based, human; details: 10 nM and 50 nM; P<0.001; recovering to levels similar to TNF-α untreated control
Experimental: as §1

[14] = 2 mg/Kg once and twice a day, 2-4 weeks

For `CCNC1=Nc2ccc(Cl)cc2C(C)(c2ccccc2)O1` (stereo not drawn) [Etifoxine], the “DMOG-induced apoptotic effects in HPMECs” value ([1]; FIG. 12F, 10 uM) was “reversed”.
For `CC(=O)N(Cc1ccccc1O[11CH3])c1cnccc1Oc1ccccc1` [PBR28], the “DMOG-induced apoptotic effects in HPMECs” value ([1]; FIG. 12D, 5 nM) was “reversed”.
For `CCC(C)N(C)C(=O)c1cc2ccccc2c(-c2ccccc2Cl)n1` (stereo not drawn) [PK95111], the “DMOG-induced apoptotic effects in HPMECs” value ([1]; FIG. 12B, 3 nM, 30 nM and 300 nM) was “reversed”.
For `CN1C(=O)CN=C(c2ccc(Cl)cc2)c2cc(Cl)ccc21` [Ro 5-4864], the “DMOG-induced apoptotic effects in HPMECs” value ([1]; FIG. 12E, 10 nM) was “reversed”.
In the case of `CCOC(=O)C1=C[C@]2(CC)CCCN3CCc4c(n1c1ccccc41)[C@@H]32` [Vinpocetine], the “DMOG-induced apoptotic effects in HPMECs” value ([1]; FIG. 12C, 800 nM) is reported as “reversed”.
In the case of `CCN(Cc1ccccc1)C(=O)Cn1c(=O)n(C)c2cnc(-c3ccccc3)nc21` [XBD-173, N-Ethyl-7,8-dihydro-7-methyl-8-oxo-2-phenyl-N-(phenylmethyl)-9H-purine-9-acetamide], the “RV cardiomyocyte hypertrophy (myocyte size, WGA)” value ([2]; MCT rat RV) is reported as “attenuated”, the “RV capillary density (CD31 micro-vessels)” value ([2]; MCT rat RV insertion point) is reported as “increased” and the “RV cardiac index (RVCI)” value [3] is reported as “restoring”. For the same compound, the “RV dilation (RV end diastolic volume index, RVEDVI)” value [3] was “significantly reduced”, the “RV ejection fraction (RVEF)” value [3] was “restoring” and the “RV hypertrophy as RV mass index (RVMI)” value [3] was “reduced”. The “RV hypertrophy as ventricular mass index (VMI)” value [3] was “reduced”, the “ventricular-vascular coupling (Ees/Ea)” value [3] was “restoring” and the “inflammatory cell (CD68, macrophage) infiltration” value ([4]; MCT rat lung) was “attenuated”. The “pulmonary vascular remodelling (% of muscularised vessels)” value ([4]; MCT rat, 2 mg/Kg once and twice a day, 2-4 weeks, vs 75.24 untreated MCT) was 53.57%, the “RV/body weight (RV/BW)” value [5, 14] was “attenuated” and the “RVSP (RV catheterisation)” value [5, 14] was “attenuated”. For the same compound, the “RVH (RV/LV+sp ratio, dissected heart tissue)” value ([5]; 2 mg/Kg once and twice a day, 2-4 weeks, vs 57.30 untreated MCT) was 40.30, the “pulmonary arterial pressure (PAP)” value ([5]; 2 mg/Kg once and twice a day, treatment from 2 weeks to 4 weeks, vs 45.37 untreated MCT) was 27.23 mmHg and the systemic blood pressure ([5]; data not shown) was “no significant effect”. For the same compound, the “DMOG-induced apoptotic effects in HPMECs” value ([1]; Example 4, FIG. 11) was “reversed”, the “DMOG-induced apoptotic effects in HPMECs” value ([1]; FIG. 12A, 10 nM, 50 nM and 100 nM) was “reversed” and the “ROS production following TNF-α stimulation” value [6] was “reduced”. The RV hypertrophy [7] was “significant decrease”, the “pulmonary arterial pressure (PAP)” value [7] was “significant decrease” and the systemic blood pressure [7] was “no significant effect”. The “PDGF-stimulated proliferation of PASMCs” value ([8]; PDGF stimulus) was “attenuated”, the “hypoxia-stimulated proliferation of PASMCs” value ([8]; hypoxia stimulus (O2=2%)) was “attenuated” and the “PBR28 lung signals (11C-PBR28 PET)” value [9] was “blocked”. For the same compound, the Kd [10] was roughly 2.5 nM, the Kd ([11]; human subjects with both high- and low-affinity binding sites, read-out: mean Kd, mixed affinity binders) was roughly 11 nM and the Kd ([11]; human subjects with low-affinity binding of their TSPO, read-out: mean Kd, low affinity binders) was roughly 30 nM. The “activation of HPAECs by TNF-α (E-selectin expression)” value ([12]; 24 hours pre-treatment, TNF-α 10 ng/ml 8 hours, P<0.05) was “reduced”, the CXCL11 release ([12]; TNF-α stimulation) was “attenuated” and the CXCL12 release ([12]; TNF-α stimulation) was “attenuated”. For the same compound, the CXCL-10 release ([12]; TNF-α stimulation) was “attenuated”, the G-CSF release ([12]; TNF-α stimulation) was “attenuated” and the IL-6 release ([12]; TNF-α stimulation) was “attenuated”. For the same compound, the IL-18 release ([12]; TNF-α stimulation) was “attenuated”, the IL-21 release ([12]; TNF-α stimulation) was “attenuated” and the RANTES release ([12]; TNF-α stimulation) was “attenuated”. For the same compound, the “mitochondrial membrane potentials following TNF-α stimulation” value [13] was “increased”.
